# From patent US8846658B2, “Oxazine derivatives and their use in the treatment of neurological disorders” (Novartis AG, priority 2009, dated 2014)
# Where a name gives a salt, the structure may show the parent alone.
# Experiment: Test 4: Inhibition of cellular release of amyloid peptide 1-40
# Assay type: cell-based, Chinese hamster
# Conditions: Cricetulus griseus; Test 4, CHO cells transfected with APP, 24 hours with test compound, amyloid peptide 1-40 in supernatant; read-out: Bace IC50
# Method: Test 4: Inhibition of Cellular Release of Amyloid Peptide 1-40
# Chinese hamster ovary cells are transfected with the gene for amyloid precursor protein. The cells are plated at a density of 8000 cells/well into 96-well microtiter plates and cultivated for 24 hours in DMEM cell culture medium containing 10% FCS. The test compound is added to the cells at various concentrations, and the cells are cultivated for 24 hours in the presence of the test compound. The supernatants are collected, and the concentration of amyloid peptide 1-40 is determined using state of the art immunoassay techniques, for example sandwich ELISA, homogenous time-resolved fluorescence (HTRF) immunoassay, or electro-chemiluminescence immunoassay.
row,Structure (SMILES),IC50 [nM]
1,COc1cnc(C(=O)Nc2ccc(F)c([C@]3(C(F)F)COCC(N)=N3)c2)c(N)n1 [Example 175],4
2,"Cl.[2H]c1nc(C(=O)Nc2ccc(F)c([C@]3(C(F)F)COCC(N)=N3)c2)c(C([2H])([2H])[2H])c([2H])c1Br [Example 116, 5-Bromo-4,6-dideutero-3-trideuteromethyl-pyridine-2-carboxylic acid [3-((R)-5-amino-3-difluoromethyl-3,6-dihydro-2H-[1,4]oxazin-3-yl)-4-fluoro-phenyl]-amide hydrochloride]",4
3,"NC1=NC(c2cc(NC(=O)c3ccc(Br)cn3)ccc2F)(C(F)(F)F)CCOC1 (stereo not shown) [Example 99, 5-Bromo-pyridine-2-carboxylic acid [3-(3-amino-5-trifluoromethyl-2,5,6,7-tetrahydro-[1,4]oxazepin-5-yl)-4-fluoro-phenyl]-amide hydrochloride]",100
4,"Cc1cc(C#N)cnc1C(=O)Nc1ccc(F)c([C@]2(C(F)F)COCC(N)=N2)c1 [Example 144, 5-Cyano-3-methyl-pyridine-2-carboxylic acid [3-((R)-5-amino-3-difluoromethyl-3,6-dihydro-2H-[1,4]oxazin-3-yl)-4-fluoro-phenyl]-amide]",6
5,Cc1cc(Br)cnc1C(=O)Nc1ccc(F)c(C2(C)COCC(N)=N2)c1 (stereo not shown) [Example 64],4
6,"N#Cc1ccc(C(=O)Nc2ccc(F)c([C@]3(C(F)F)COCC(N)=N3)c2)nc1 [Example 112, 5-Cyano-pyridine-2-carboxylic acid [3-((R)-5-amino-3-difluoromethyl-3,6-dihydro-2H-[1,4]oxazin-3-yl)-4-fluoro-phenyl]-amide hydrochloride]",7
7,CC#CCOc1cnc(C(=O)Nc2ccc(F)c([C@]3(C(F)F)COCC(N)=N3)c2)cn1 [Example 164],1
8,"[2H]c1nc(C(=O)Nc2ccc(F)c([C@]3(C(F)F)COCC(N)=N3)c2)c(C([2H])([2H])[2H])c([2H])c1C#N [Example 147, 5-Cyano-4,6-dideutero-3-trideuteromethyl-pyridine-2-carboxylic acid [3-((R)-5-amino-3-difluoromethyl-3,6-dihydro-2H-[1,4]oxazin-3-yl)-4-fluoro-phenyl]-amide]",8
9,"C[C@@]1(c2cccc(NC(=O)c3ccc(Br)cn3)c2)COCC(N)=N1 [Example 3, 5-Bromo-pyridine-2-carboxylic acid [3-((R)-5-amino-3-methyl-3,6-dihydro-2H-[1,4]oxazin-3-yl)-phenyl]-amide hydrochloride]",17
10,"C[C@@]1(c2cc(NC(=O)c3ncc(Br)cn3)ccc2F)CO[C@@](C)(C(F)(F)F)C(N)=N1 [Example 71, 5-Bromo-pyrimidine-2-carboxylic acid [3-((3R,6R)-6-amino-3,6-dimethyl-6-trifluoromethyl-3,6-dihydro-2H-[1,4]oxazin-3-yl)-4-fluoro-phenyl]-amide hydrochloride]",4
